Measurements reported in the NIST ThermoML archive (doi:10.1016/j.jct.2003.12.012).
± gives the expanded uncertainty stated by the source.

Assay: molar heat capacity at saturation pressure

c1ccc2c3c(sc2c1)CCCC3 [1,2,3,4-tetrahydrodibenzothiophene]
molar heat capacity [J/K/mol]
Conditions	Crystal	Liquid
80 K, Vacuum adiabatic calorimetry	68.94 ± 0.17	–
85.75 K, Vacuum adiabatic calorimetry	72.84 ± 0.18	–
90 K, Vacuum adiabatic calorimetry	75.67 ± 0.27	–
90.98 K, Vacuum adiabatic calorimetry	76.33 ± 0.27	–
93.89 K, Vacuum adiabatic calorimetry	78.25 ± 0.28	–
99.3 K, Vacuum adiabatic calorimetry	81.84 ± 0.28	–
100 K, Vacuum adiabatic calorimetry	82.3 ± 0.28	–
108.29 K, Vacuum adiabatic calorimetry	87.72 ± 0.29	–
117.93 K, Vacuum adiabatic calorimetry	93.99 ± 0.29	–
120 K, Vacuum adiabatic calorimetry	95.28 ± 0.3	–
127.8 K, Vacuum adiabatic calorimetry	100.49 ± 0.3	–
138.76 K, Vacuum adiabatic calorimetry	107.84 ± 0.31	–
140 K, Vacuum adiabatic calorimetry	108.6 ± 0.31	–
150.73 K, Vacuum adiabatic calorimetry	116.11 ± 0.32	–
160 K, Vacuum adiabatic calorimetry	122.46 ± 0.32	–
162.76 K, Vacuum adiabatic calorimetry	124.52 ± 0.32	–
174.79 K, Vacuum adiabatic calorimetry	133.17 ± 0.33	–
180 K, Vacuum adiabatic calorimetry	136.76 ± 0.34	–
186.82 K, Vacuum adiabatic calorimetry	141.95 ± 0.34	–
198.84 K, Vacuum adiabatic calorimetry	151.12 ± 0.35	–
199.7 K, Vacuum adiabatic calorimetry	151.8 ± 0.35	–
200 K, Vacuum adiabatic calorimetry	151.75 ± 0.35	–
210.84 K, Vacuum adiabatic calorimetry	160.54 ± 0.36	–
212.28 K, Vacuum adiabatic calorimetry	161.67 ± 0.37	–
220 K, Vacuum adiabatic calorimetry	167.35 ± 0.37	–
222.84 K, Vacuum adiabatic calorimetry	170.12 ± 0.37	–
225.76 K, Vacuum adiabatic calorimetry	172.63 ± 0.37	–
232.14 K, Vacuum adiabatic calorimetry	177.99 ± 0.38	–
234.83 K, Vacuum adiabatic calorimetry	180.25 ± 0.38	–
238.71 K, Vacuum adiabatic calorimetry	183.61 ± 0.38	–
240 K, Vacuum adiabatic calorimetry	183.48 ± 0.38	–
247.47 K, Vacuum adiabatic calorimetry	192.11 ± 0.39	–
249.42 K, Vacuum adiabatic calorimetry	193.97 ± 0.39	–
251.32 K, Vacuum adiabatic calorimetry	196.13 ± 0.4	–
260 K, Vacuum adiabatic calorimetry	200.99 ± 0.4	–
262.17 K, Vacuum adiabatic calorimetry	216.81 ± 0.42	–
263.64 K, Vacuum adiabatic calorimetry	221.51 ± 0.42	–
263.71 K, Vacuum adiabatic calorimetry	222.9 ± 0.43	–
275.03 K, Vacuum adiabatic calorimetry	216.13 ± 0.42	256.66 ± 0.46
280 K, Vacuum adiabatic calorimetry	–	259.07 ± 0.46
282.32 K, Vacuum adiabatic calorimetry	–	260.24 ± 0.46
283.78 K, Vacuum adiabatic calorimetry	–	260.98 ± 0.46
287.63 K, Vacuum adiabatic calorimetry	–	262.81 ± 0.47
291.46 K, Vacuum adiabatic calorimetry	–	264.72 ± 0.47
298.15 K, Vacuum adiabatic calorimetry	–	268.09 ± 0.47
300 K, Vacuum adiabatic calorimetry	–	269.02 ± 0.47
300.54 K, Vacuum adiabatic calorimetry	–	269.29 ± 0.47
301.1 K, Vacuum adiabatic calorimetry	–	269.61 ± 0.47
315.41 K, Vacuum adiabatic calorimetry	–	277.04 ± 0.47
320 K, Vacuum adiabatic calorimetry	–	279.47 ± 0.48
330.79 K, Vacuum adiabatic calorimetry	–	285.2 ± 0.48
340 K, Vacuum adiabatic calorimetry	–	290.16 ± 0.49
343.22 K, Vacuum adiabatic calorimetry	–	291.9 ± 0.49
359.69 K, Vacuum adiabatic calorimetry	–	300.83 ± 0.5
360 K, Vacuum adiabatic calorimetry	–	301 ± 0.5
376.04 K, Vacuum adiabatic calorimetry	–	309.7 ± 0.51
380 K, Vacuum adiabatic calorimetry	–	311.85 ± 0.52
392 K, Vacuum adiabatic calorimetry	–	318.35 ± 0.52
400 K, Vacuum adiabatic calorimetry	–	322.67 ± 0.52
408.31 K, Vacuum adiabatic calorimetry	–	327.12 ± 0.52
420 K, Vacuum adiabatic calorimetry	–	333.33 ± 0.53
424.94 K, Vacuum adiabatic calorimetry	–	335.95 ± 0.53
437.47 K, Vacuum adiabatic calorimetry	–	342.54 ± 0.54
440 K, Small sample (50 mg) DSC	–	344.04 ± 6.9
460 K, Small sample (50 mg) DSC	–	355.38 ± 7.1
480 K, Small sample (50 mg) DSC	–	366.09 ± 7.3
500 K, Small sample (50 mg) DSC	–	376.9 ± 7.5
520 K, Small sample (50 mg) DSC	–	387.66 ± 7.8
540 K, Small sample (50 mg) DSC	–	398.39 ± 8
560 K, Small sample (50 mg) DSC	–	409.11 ± 8.2
580 K, Small sample (50 mg) DSC	–	419.8 ± 8.4
600 K, Small sample (50 mg) DSC	–	430.43 ± 8.6
